Measurements from US4065495A (Zaidan Hojin Biseibutsu Kagaku Kenkyu Kai, priority 1975, dated 1977).
≈ marks a conversion by molar mass, not a printed value.

Assays:
[1] = system: Staphylococcus aureus FDA209P; assay: Minimum inhibitory concentration, Staphylococcus aureus FDA209P; assay type: cell-based; conditions: 0.5% peptone agar, 37° C., 17 hours
Description: (§1) *Minimum inhibitory concentrations were determined on a 0.5% peptone agar
(§2) by incubation at 37° C. for 17 hours.

[2] = system: Staphylococcus aureus Smith; assay: Minimum inhibitory concentration, Staphylococcus aureus Smith; assay type: cell-based; conditions: 0.5% peptone agar, 37° C., 17 hours
Description: as §1, §2

[3] = system: Sarcina lutea PCI1001; assay: Minimum inhibitory concentration, Sarcina lutea PCI1001; assay type: cell-based; conditions: Micrococcus luteus, 0.5% peptone agar, 37° C., 17 hours
Description: as §1, §2

[4] = system: Micrococcus flavus FDA16; assay: Minimum inhibitory concentration, Micrococcus flavus FDA16; assay type: cell-based; conditions: 0.5% peptone agar, 37° C., 17 hours
Description: as §1, §2

[5] = system: Bacillus subtilis NRRL B-558; assay: Minimum inhibitory concentration, Bacillus subtilis NRRL B-558; assay type: cell-based; conditions: NRRLB558, 0.5% peptone agar, 37° C., 17 hours
Description: as §1, §2

[6] = system: Mycobacterium smegmatis ATC607; assay: Minimum inhibitory concentration, Mycobacterium smegmatis ATC607; assay type: cell-based; conditions: Mycolicibacterium smegmatis, 0.5% peptone agar, 37° C., 17 hours
Description: as §1, §2

[7] = system: Escherichia coli NIHJ; assay: Minimum inhibitory concentration, Escherichia coli NIHJ; assay type: cell-based; conditions: 0.5% peptone agar, 37° C., 17 hours
Description: as §1, §2

[8] = system: Escherichia coliK-12; assay: Minimum inhibitory concentration, Escherichia coli K-12; assay type: cell-based; conditions: 0.5% peptone agar, 37° C., 17 hours
Description: as §1, §2

[9] = system: Escherichia coli K-12 ML1629; assay: Minimum inhibitory concentration, Escherichia coli K-12 ML1629; assay type: cell-based; conditions: K12ML1629, 0.5% peptone agar, 37° C., 17 hours
Description: as §1, §2

[10] = system: Salmonella typhi T-63; assay: Minimum inhibitory concentration, Salmonella typhi T-63; assay type: cell-based; conditions: Salmonella enterica, 17 h, read-out: Minimum Inhibitory Concentration
Description: as §1, §2

[11] = system: Proteus vulgaris OX-19; assay: Minimum inhibitory concentration, Proteus vulgaris OX-19; assay type: cell-based; conditions: OX19, 0.5% peptone agar, 37° C., 17 hours
Description: as §1, §2

[12] = system: Proteus rettgeri GN311; assay: Minimum inhibitory concentration, Proteus rettgeri GN311; assay type: cell-based; conditions: Providencia rettgeri, 0.5% peptone agar, 37° C., 17 hours
Description: as §1, §2

[13] = system: Proteus rettgeri GN466; assay: Minimum inhibitory concentration, Proteus rettgeri GN466; assay type: cell-based; conditions: Providencia rettgeri, 0.5% peptone agar, 37° C., 17 hours
Description: as §1, §2

[14] = system: Serratia marcescens; assay: Minimum inhibitory concentration, Serratia marcescens; assay type: cell-based; conditions: 0.5% peptone agar, 37° C., 17 hours
Description: as §1, §2

[15] = system: Klebsiella pneumoniae PCI602; assay: Minimum inhibitory concentration, Klebsiella pneumoniae PCI602; assay type: cell-based; conditions: 0.5% peptone agar, 37° C., 17 hours
Description: as §1, §2

[16] = system: Pseudomonas fluorescens; assay: Minimum inhibitory concentration, Pseudomonas fluorescens; assay type: cell-based; conditions: 0.5% peptone agar, 37° C., 17 hours
Description: as §1, §2

[17] = system: Pseudomonas aeruginosa A3; assay: Minimum inhibitory concentration, Pseudomonas aeruginosa A3; assay type: cell-based; conditions: 0.5% peptone agar, 37° C., 17 hours
Description: as §1, §2

[18] = system: Pseudomonas aeruginosa No. 12; assay: Minimum inhibitory concentration, Pseudomonas aeruginosa No. 12; assay type: cell-based; conditions: 0.5% peptone agar, 37° C., 17 hours
Description: as §1, §2

[19] = Stability in aqueous or 0.02N HCl aqueous solution; assay type: physicochemical; conditions: in words
[20] = system: Gram-positive and Gram-negative bacteria; assay: Antibacterial activity against Gram-positive and Gram-negative bacteria; assay type: cell-based; conditions: in words
Description: as §1, §2

Row | SMILES | MIC [1] | MIC [2] | MIC [3] | MIC [4] | MIC [5] | MIC [6] | MIC [7] | MIC [8] | MIC [9] | MIC [10] | MIC [11] | MIC [12] | MIC [13] | MIC [14] | MIC [15] | MIC [16] | MIC [17] | MIC [18] | stability in aqueous solution (general statement) [19] | inhibition of growth of Gram-positive and Gram-negative bacteria [20]
1 | CO[C@@H](CN)C[C@@H](N)CC(=O)NN(C)CC(=O)O [O-Methylnegamycin] | 12.5 µg/mL (≈ 47.7 µM) | 6.25 µg/mL (≈ 23.8 µM) | 25 µg/mL (≈ 95.3 µM) | 50 µg/mL (≈ 191 µM) | 50 µg/mL (≈ 191 µM) | 25 µg/mL (≈ 95.3 µM) | 6.25 µg/mL (≈ 23.8 µM) | 3.13 µg/mL (≈ 11.9 µM) | 1.56 µg/mL (≈ 5.95 µM) | 1.56 µg/mL (≈ 5.95 µM) | 1.56 µg/mL (≈ 5.95 µM) | 6.25 µg/mL (≈ 23.8 µM) | 3.13 µg/mL (≈ 11.9 µM) | 25 µg/mL (≈ 95.3 µM) | 6.25 µg/mL (≈ 23.8 µM) | 1.56 µg/mL (≈ 5.95 µM) | 12.5 µg/mL (≈ 47.7 µM) | 25 µg/mL (≈ 95.3 µM) | quite stable in aqueous solution | active against Gram-positive and Gram-negative bacteria
2 | CN(CC(=O)O)NC(=O)C[C@H](N)CCCN [Deoxynegamycin] | 25 µg/mL (≈ 108 µM) | 6.25 µg/mL (≈ 26.9 µM) | > 100 µg/mL | 50 µg/mL (≈ 215 µM) | 100 µg/mL (≈ 431 µM) | 50 µg/mL (≈ 215 µM) | 6.25 µg/mL (≈ 26.9 µM) | 3.13 µg/mL (≈ 13.5 µM) | 3.13 µg/mL (≈ 13.5 µM) | 0.78 µg/mL (≈ 3.36 µM) | 3.13 µg/mL (≈ 13.5 µM) | 6.25 µg/mL (≈ 26.9 µM) | 3.13 µg/mL (≈ 13.5 µM) | 25 µg/mL (≈ 108 µM) | 6.25 µg/mL (≈ 26.9 µM) | 3.13 µg/mL (≈ 13.5 µM) | 25 µg/mL (≈ 108 µM) | 50 µg/mL (≈ 215 µM) | quite stable in aqueous solution | active against Gram-positive and Gram-negative bacteria
